Among the data in ChEMBL document CHEMBL4422680, “Synthesis, biological evaluation, and molecular docking study of novel allyl-retrochalcones as a new class of protein tyrosine phosphatase 1B inhibitors” (Bioorg Med Chem, 2019) are inhibition and IC50 values, retold here.

The IC50 is the concentration needed to halve the response being measured.

Assay [1] addresses T1, Tyrosine-protein phosphatase non-receptor type 1 (Homo sapiens) (UniProt P18031).
T1 sequence (whole entry): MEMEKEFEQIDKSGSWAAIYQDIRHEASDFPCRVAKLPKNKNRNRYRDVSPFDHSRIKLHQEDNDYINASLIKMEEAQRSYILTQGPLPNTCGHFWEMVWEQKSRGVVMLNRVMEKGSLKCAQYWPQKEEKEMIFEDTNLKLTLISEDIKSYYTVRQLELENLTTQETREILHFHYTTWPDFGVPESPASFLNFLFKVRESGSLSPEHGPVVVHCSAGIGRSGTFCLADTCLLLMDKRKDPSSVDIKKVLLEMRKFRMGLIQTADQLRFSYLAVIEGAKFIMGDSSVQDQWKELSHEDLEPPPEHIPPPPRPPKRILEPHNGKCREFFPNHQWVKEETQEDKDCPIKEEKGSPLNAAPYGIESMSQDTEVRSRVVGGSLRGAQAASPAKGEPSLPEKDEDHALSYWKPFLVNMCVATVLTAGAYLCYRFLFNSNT
As to the kind of experiment: (§1) Inhibition of recombinant human PTP1B using pNPP as substrate measured after 30 mins.

Assay [2] addresses T2, Tyrosine-protein phosphatase non-receptor type 1 (Homo sapiens, UniProt P18031).
T2 sequence (P18031 whole entry): T1 sequence (whole entry)
The description is as §1.

Consider `C=CCc1cc(/C=C/C(=O)c2ccc(OC(=O)c3ccc(Br)cc3)cc2)c(OC)cc1O`, for which the inhibition result in assay [1] was “Dose-dependent effect”. Moreover, the IC50 in assay [2] (read-out: IC50) came to 6.6 µM.
For `C=CCc1cc(/C=C/C(=O)c2ccc(OC)c(CC=C(C)C)c2)c(OC)cc1O`, in that order: “Dose-dependent effect” and 8.2 µM.
`C=CCc1cc(/C=C/C(=O)c2ccc(OC)cc2)c(OC)cc1O`: the inhibition result in assay [1] was “Dose-dependent effect”. Further, in assay [2] (read-out: IC50), the IC50 worked out at 7.4 µM.
The like results for `C=CCc1cc(/C=C/C(=O)c2ccc(OCCCC(=O)OCC)cc2)c(OC)cc1O` were, in that order, “Dose-dependent effect” and 25.6 µM.
The like results for `C=CCc1cc(/C=C/C(=O)c2ccc(OCC=C(C)C)cc2)c(OC)cc1O` were, in that order, “Dose-dependent effect” and 5.9 µM.
The like results for `C=CCc1cc(/C=C/C(=O)c2cc3c(cc2N(C)C)OCO3)c(OC)cc1O` were, in that order, “Dose-dependent effect” and 11.8 µM.
For the molecule `C=CCc1cc(/C=C/C(=O)c2ccc(OCC=C(C)C)cc2O)c(OC)cc1O`, the inhibition entry in assay [1] was “Dose-dependent effect”. Moreover, the IC50 in assay [2] (read-out: IC50) stood at 3 µM.
As to `C=CCc1cc(/C=C/C(=O)c2ccc(OCCCC(=O)O)cc2)c(OC)cc1O`, in assay [2] (read-out: IC50), the IC50 is 32.8 µM.
For the molecule `C=CC(C)(C)c1cc(/C=C/C(=O)c2ccc(O)cc2)c(OC)cc1O`, the inhibition result in assay [1] was “Dose-dependent effect”.
Take `C=CCc1cc(/C=C/C(=O)c2ccc(N3CCOCC3)cc2)c(OC)cc1O`: the inhibition entry in assay [1] is “Dose-dependent effect”. The IC50 in assay [2] (read-out: IC50) was found to be 12.3 µM.
For `C=CCc1cc(/C=C/C(=O)c2ccc(OCCCCC(=O)O)cc2)c(OC)cc1O`, in that order: “Dose-dependent effect” and 5.8 µM.
For `C=CCc1cc(/C=C/C(=O)c2cccc(N3CCCCC3)c2)c(OC)cc1O`, in that order: “Dose-dependent effect” and 7.2 µM.
The like results for `C=CCc1cc(/C=C/C(=O)c2cccc(N(CC=C)CC=C)c2)c(OC)cc1O` were, in that order, “Dose-dependent effect” and 4.7 µM.
Consider `C=CCc1cc(/C=C/C(=O)c2cccc(N(C)C)c2)c(OC(C)C)cc1O`, for which the inhibition entry in assay [1] was “Dose-dependent effect”. In addition, the IC50 in assay [2] (read-out: IC50) is 6.9 µM.
For `C=CCc1cc(/C=C/C(=O)c2ccc(N(CC=C)CC=C)cc2)c(OC)cc1O`, in that order: “Dose-dependent effect” and 5.9 µM.
The like results for `C=CCc1cc(/C=C/C(=O)c2ccc(OCC(=O)OCC)cc2)c(OC)cc1O` were, in that order, “Dose-dependent effect” and 9.4 µM.
The like results for `C=CCc1cc(/C=C/C(=O)c2ccc(OC(=O)c3ccc(C(C)(C)C)cc3)cc2)c(OC)cc1O` were, in that order, “Dose-dependent effect” and 5 µM.
Take `C=CCOc1ccc(C(=O)/C=C/c2cc(CC=C)c(O)cc2OC)c(O)c1`: the inhibition entry in assay [1] was “Dose-dependent effect”. In assay [2] (read-out: IC50), the half-inhibitory concentration (IC50) was determined as 6.5 µM.
As to `C[C@H]1[C@H](C)CC[C@]2(C(=O)O)CC[C@]3(C)C(=CC[C@@H]4[C@@]5(C)CC[C@H](O)C(C)(C)[C@@H]5CC[C@]43C)[C@H]12`, the inhibition result in assay [1] is “Dose-dependent effect”.
With `C=CCc1cc(/C=C/C(=O)c2ccc(-n3cccn3)cc2)c(OC)cc1O`, the inhibition result in assay [1] is “Dose-dependent effect”. Moreover, in assay [2] (read-out: IC50), the IC50 amounted to 6.3 µM.
For `C=CCc1cc(/C=C/C(=O)c2ccc(OC(=O)c3ccccc3)cc2)c(OC)cc1O`, in that order: “Dose-dependent effect” and 4.6 µM.
With `C=CCc1cc(/C=C/C(=O)c2cccc(NS(C)(=O)=O)c2)c(OC)cc1O`, in assay [2], the IC50 result was “Not Active”.
For the molecule `C=CCc1cc(/C=C/C(=O)c2ccccc2N2CCCCC2)c(OC)cc1O`, in assay [1], the inhibition entry is “Dose-dependent effect”. In addition, the IC50 in assay [2] (read-out: IC50) is 9.5 µM.
The like results for `C=CCc1cc(/C=C/C(=O)c2ccc(O)cc2)c(OC)cc1O` were, in that order, “Dose-dependent effect” and 12.9 µM.
As for `C=CCc1cc(/C=C/C(=O)c2ccc(OC)c(C(C)C(=C)C)c2)c(OC)cc1O` (stereo unspecified), the inhibition entry in assay [1] was “Dose-dependent effect”. Further, the half-maximal inhibitory concentration (IC50) in assay [2] (read-out: IC50) stood at 5.4 µM.
For `C=C(C)[C@H](C)c1cc(/C=C/C(=O)c2ccc(O)cc2)c(OC)cc1O` [LICOCHALCONE E], in that order: “Dose-dependent effect” and 4 µM.
The like results for `C=CCc1cc(/C=C/C(=O)c2ccc(OCCCCC(=O)OCC)cc2)c(OC)cc1O` were, in that order, “Dose-dependent effect” and 3.9 µM.
In the case of `C=CCc1cc(/C=C/C(=O)c2cccc(OC)c2)c(OC)cc1O`, in assay [1], the inhibition entry is “Dose-dependent effect”. Moreover, in assay [2] (read-out: IC50), the IC50 was 14.6 µM.
Consider `C=CCc1cc(/C=C/C(=O)c2cccc(O)c2)c(OC)cc1O`, for which the IC50 result in assay [2] is recorded as “Not Active”.
On to `C=CCc1cc(/C=C/C(=O)c2ccc(OC)c(CC=C)c2)c(OC)cc1O`, for which, in assay [1], the inhibition result is “Dose-dependent effect”. In assay [2] (read-out: IC50), the IC50 worked out at 10.9 µM.
For `C=CCOc1ccc(C(=O)/C=C/c2cc(CC=C)c(O)cc2OC)cc1`, in that order: “Dose-dependent effect” and 5.4 µM.
In the case of `C=CCc1cc(/C=C/C(=O)c2ccc(OCC(=O)O)cc2)c(OC)cc1O`, the inhibition result in assay [1] is “Dose-dependent effect”. Moreover, the IC50 in assay [2] (read-out: IC50) stood at 12.6 µM.
The like results for `C=CCc1cc(/C=C/C(=O)c2ccc(OCC)cc2)c(OC)cc1O` were, in that order, “Dose-dependent effect” and 5.3 µM.
As to `C=CCc1cc(/C=C/C(=O)c2ccc(OC)cc2O)c(OC)cc1O`, in assay [1], the inhibition entry is “Dose-dependent effect”. Also, in assay [2] (read-out: IC50), the IC50 turned out to be 24.8 µM.
For `C=CCc1cc(/C=C/C(=O)c2ccccc2N(C)C)c(OC)cc1O`, in that order: “Dose-dependent effect” and 16.3 µM.
For `C=CCc1cc(/C=C/C(=O)c2ccc(N(C)C)cc2)c(OC)cc1O`, in that order: “Dose-dependent effect” and 6.9 µM.
The like results for `C=CCc1cc(/C=C/C(=O)c2ccc(N3CCCCC3)cc2)c(OC)cc1O` were, in that order, “Dose-dependent effect” and 6.9 µM.
As for `C=CCOc1ccc(C(=O)/C=C/c2cc(CC=C)c(OC3CCCCO3)cc2OC)c(O)c1` (stereo unspecified), the IC50 entry in assay [2] is listed as “Not Active”.
For the molecule `C=CCc1cc(/C=C/C(=O)c2cccc(N(C)C)c2)c(OCc2ccccc2)cc1O`, the inhibition result in assay [1] was “Dose-dependent effect”. Also, in assay [2] (read-out: IC50), the IC50 turned out to be 5 µM.
For the molecule `C=CCc1cc(/C=C/C(=O)c2ccc(O)cc2)c(OC)cc1OC1CCCCO1` (stereo unspecified), the inhibition result in assay [1] is “Dose-dependent effect”. For the same molecule, the IC50 in assay [2] (read-out: IC50) was 9.4 µM.
As for `C=CCOc1ccc(C(=O)/C=C/c2cc(CC=C)c(O)cc2OC)c(OC)c1`, the inhibition entry in assay [1] is “Dose-dependent effect”. For the same molecule, the concentration for half-maximal inhibition (IC50) in assay [2] (read-out: IC50) amounted to 3.9 µM.
